Peptide text beside a SMILES is read from it.
What was measured:
[1] = molecular target: T1, Thrombospondin-1 (Homo sapiens, UniProt P07996); assay: Inhibition of TSP1 in human myeloma cells assessed reduction in TGFbeta activity incubated for 1 hr by ELISA; assay type: cell-based
Target sequence in this assay (P07996 whole entry): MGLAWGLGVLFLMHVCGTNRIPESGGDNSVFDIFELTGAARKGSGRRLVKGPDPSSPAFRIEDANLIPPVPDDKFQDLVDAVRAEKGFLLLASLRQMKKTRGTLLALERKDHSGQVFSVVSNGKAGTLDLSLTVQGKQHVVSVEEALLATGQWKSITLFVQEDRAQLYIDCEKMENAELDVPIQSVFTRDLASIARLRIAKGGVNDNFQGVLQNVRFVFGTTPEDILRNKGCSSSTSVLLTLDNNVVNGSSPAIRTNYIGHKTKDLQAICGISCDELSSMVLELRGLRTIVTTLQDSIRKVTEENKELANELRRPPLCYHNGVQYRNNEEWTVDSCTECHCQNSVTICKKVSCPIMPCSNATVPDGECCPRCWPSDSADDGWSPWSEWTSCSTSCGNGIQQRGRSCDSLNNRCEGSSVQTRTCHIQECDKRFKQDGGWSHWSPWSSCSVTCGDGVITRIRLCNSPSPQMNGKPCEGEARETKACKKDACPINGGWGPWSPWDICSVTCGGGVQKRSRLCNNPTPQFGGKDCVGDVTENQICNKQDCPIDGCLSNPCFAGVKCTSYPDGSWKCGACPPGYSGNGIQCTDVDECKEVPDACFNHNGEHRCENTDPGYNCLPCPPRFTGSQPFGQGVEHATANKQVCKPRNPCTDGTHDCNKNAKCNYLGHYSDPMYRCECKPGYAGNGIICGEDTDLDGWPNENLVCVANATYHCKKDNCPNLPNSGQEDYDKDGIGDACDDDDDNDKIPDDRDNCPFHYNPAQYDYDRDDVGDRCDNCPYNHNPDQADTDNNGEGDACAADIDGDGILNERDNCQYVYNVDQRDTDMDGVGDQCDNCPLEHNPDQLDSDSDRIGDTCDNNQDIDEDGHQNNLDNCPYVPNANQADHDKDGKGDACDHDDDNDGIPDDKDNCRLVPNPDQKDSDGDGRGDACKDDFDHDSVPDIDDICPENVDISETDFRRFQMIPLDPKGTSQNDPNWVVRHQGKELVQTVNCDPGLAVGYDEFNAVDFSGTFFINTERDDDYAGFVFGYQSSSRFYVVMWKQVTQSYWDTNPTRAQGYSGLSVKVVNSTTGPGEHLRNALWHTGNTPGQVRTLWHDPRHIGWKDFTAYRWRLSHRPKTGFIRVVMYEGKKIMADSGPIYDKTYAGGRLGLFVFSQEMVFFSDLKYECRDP

[2] = Half life in CD1 mouse at 1 mg/kg, iv by LC-MS/MS analysis; assay type: ADME, organism-based; details: in vivo
[3] = Plasma concentration in CD1 mouse at 1 mg/kg, iv or 5 mg/kg, po measured after 1 hr by LC-MS/MS analysis; assay type: ADME, organism-based
[4] = Microsomal stability in rat liver microsomes assessed as half life measured after 45 mins in presence of NADPH by LC-MS/MS analysis; assay type: ADME, Microsome
[5] = Cmax in ip dosed CD1 mouse measured after 0.25 hrs by LC-MS/MS analysis; assay type: ADME, organism-based; set-up: route intraperitoneal; details: in vivo
[6] = Microsomal stability in human liver microsomes assessed as half life measured after 45 mins in presence of NADPH by LC-MS/MS analysis; assay type: ADME, Microsome
[7] = Plasma concentration in CD1 mouse at 1 mg/kg, iv or 5 mg/kg, po measured after 2 hrs by LC-MS/MS analysis; assay type: ADME, organism-based
[8] = Half life in ip dosed CD1 mouse by LC-MS/MS analysis; assay type: ADME, organism-based; details: in vivo
[9] = molecular target: T1, Thrombospondin-1; assay: Inhibition of recombinant human TSP1 P123 expressed in baculovirus system binding to recombinant human LAP at 10 nM preincubated for 10 mins followed by recombinant human LAP addition and measured after 2 hrs by ELISA relative to control
Target sequence in this assay (P07996 19-1170 limits assumed): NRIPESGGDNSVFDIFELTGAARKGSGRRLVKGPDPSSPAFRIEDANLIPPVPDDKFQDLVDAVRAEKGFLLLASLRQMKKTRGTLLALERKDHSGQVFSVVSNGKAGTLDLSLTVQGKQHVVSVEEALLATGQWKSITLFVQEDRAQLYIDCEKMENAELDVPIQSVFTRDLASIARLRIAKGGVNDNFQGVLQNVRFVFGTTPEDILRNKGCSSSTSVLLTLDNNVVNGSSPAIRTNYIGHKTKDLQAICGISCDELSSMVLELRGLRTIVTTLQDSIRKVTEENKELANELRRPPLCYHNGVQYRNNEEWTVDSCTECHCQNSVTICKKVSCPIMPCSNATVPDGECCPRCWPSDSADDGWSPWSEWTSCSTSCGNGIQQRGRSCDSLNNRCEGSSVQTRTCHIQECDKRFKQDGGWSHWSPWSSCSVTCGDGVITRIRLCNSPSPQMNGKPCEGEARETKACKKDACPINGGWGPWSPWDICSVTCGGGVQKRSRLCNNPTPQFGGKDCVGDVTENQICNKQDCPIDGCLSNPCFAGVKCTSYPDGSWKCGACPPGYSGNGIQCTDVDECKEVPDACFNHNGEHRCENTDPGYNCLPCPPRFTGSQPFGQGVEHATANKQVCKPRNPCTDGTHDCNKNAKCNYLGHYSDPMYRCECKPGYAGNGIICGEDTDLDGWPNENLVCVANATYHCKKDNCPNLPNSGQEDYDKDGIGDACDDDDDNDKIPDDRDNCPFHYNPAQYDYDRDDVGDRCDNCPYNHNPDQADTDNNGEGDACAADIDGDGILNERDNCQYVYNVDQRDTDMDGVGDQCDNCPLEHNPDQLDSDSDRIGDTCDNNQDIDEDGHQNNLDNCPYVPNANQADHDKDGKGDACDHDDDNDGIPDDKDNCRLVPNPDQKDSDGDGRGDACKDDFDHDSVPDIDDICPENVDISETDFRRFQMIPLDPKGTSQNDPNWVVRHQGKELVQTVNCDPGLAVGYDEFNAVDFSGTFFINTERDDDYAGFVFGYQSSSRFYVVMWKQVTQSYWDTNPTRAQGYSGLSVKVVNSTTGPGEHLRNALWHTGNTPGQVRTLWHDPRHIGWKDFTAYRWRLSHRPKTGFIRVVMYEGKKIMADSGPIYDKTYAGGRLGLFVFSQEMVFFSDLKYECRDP

[10] = Oral bioavailability in CD1 mouse at 5 mg/kg by LC-MS/MS analysis; assay type: ADME, organism-based; details: in vivo

Row | SMILES | IC50 [1] | other results
1 | CNC(=O)[C@H](CC(C)C)NC(=O)[C@@H](CCCCN)NC(=O)[C@@H](NC(C)=O)[C@@H](C)O | 2.88 nM | –
2 | CC(=O)N[C@@H](CCCN)C(=O)NC(C)(C)C(N)=O | 7.59 nM | half-life [2]: 0.2 h; concentration at 1 h [3]: 11.6 µM; half-life [4]: 2.83 h; Cmax [5]: 19400 ng/mL; half-life [6]: > 5 h; concentration at 2 h [7]: 2.1 µM; half-life [8]: 7 h; inhibition [9]: 85%; bioavailability [10]: 9%
3 | CC(=O)N[C@@H](CC(N)=O)C(=O)N[C@@H](CCCCN)C(=O)N[C@@H](CC(C)C)C(N)=O (Ac-Asn-Lys-Leu-NH2) | 9.55 nM | –
4 | CC(=O)NCC(=O)N[C@@H](CCCCN)C(=O)N[C@@H](CC(C)C)C(N)=O (Ac-Gly-Lys-Leu-NH2) | 14.1 nM | –
5 | CC(=O)NCCCC[C@H](NC(=O)[C@H](CO)NC(C)=O)C(=O)N[C@@H](CC(C)C)C(N)=O (Ac-Ser-Lys(Ac)-Leu-NH2) | 15.1 nM | –
6 | CC(=O)N[C@@H](CO)C(=O)N[C@@H](CCCCN)C(=O)N[C@@H](CC(C)C)C(N)=O (Ac-Ser-Lys-Leu-NH2) | 5.25 nM | half-life [2]: 1.9 h; inhibition [9]: 85%
7 | CCC(=O)N[C@@H](CO)C(=O)N[C@@H](CCCCN)C(=O)N[C@@H](CC(C)C)C(N)=O (HELM PEPTIDE1{[CCC(=O)[*:2]].S.K.L.[am]}$$$$V2.0) | 13.5 nM | –
8 | CC(=O)N[C@@H](CO)C(=O)N[C@@H](CCCCN)C(=O)N[C@@H](CC(C)C)C(=O)N(C)C (HELM PEPTIDE1{[ac].S.K.L.[CN(C)[*:1]]}$$$$V2.0) | 3.31 nM | –
9 | CC(=O)N[C@@H](CO)C(=O)N[C@@H](CCCCN)C(=O)N[C@H](CC(C)C)C(N)=O (HELM PEPTIDE1{[ac].S.K.[dL].[am]}$$$$V2.0) | 2 nM | –
10 | CC(=O)N[C@@H](CO)C(=O)N[C@@H](CCCCN)C(=O)N(C)[C@@H](CC(C)C)C(N)=O (HELM PEPTIDE1{[ac].S.K.[meL].[am]}$$$$V2.0) | 2.24 nM | –
11 | CC(=O)N[C@@H](CO)C(=O)N[C@@H](CCCCN(C)C)C(=O)N[C@@H](CC(C)C)C(N)=O (HELM PEPTIDE1{[ac].S.[CN(C)CCCC[C@H](N[*:1])C(=O)[*:2]].L.[am]}$$$$V2.0) | 1.51 nM | –
12 | CNCCCC[C@H](NC(=O)[C@H](CO)NC(C)=O)C(=O)N[C@@H](CC(C)C)C(N)=O (HELM PEPTIDE1{[ac].S.[CNCCCC[C@H](N[*:1])C(=O)[*:2]].L.[am]}$$$$V2.0) | 4.37 nM | –
13 | CC(=O)N[C@@H](CO)C(=O)N[C@@H](CCCN)C(=O)NC(C)(C)C(N)=O (HELM PEPTIDE1{[ac].S.[Orn].[Aib].[am]}$$$$V2.0) | – | inhibition [9]: 34%
14 | CC(=O)N[C@@H](CO)C(=O)N[C@H](CCCCN)C(=O)N[C@@H](CC(C)C)C(N)=O (HELM PEPTIDE1{[ac].S.[dK].L.[am]}$$$$V2.0) | 1.7 nM | –
15 | CC(=O)N[C@H](CO)C(=O)N[C@@H](CCCCN)C(=O)N[C@@H](CC(C)C)C(N)=O (HELM PEPTIDE1{[ac].[dS].K.L.[am]}$$$$V2.0) | 0.38 nM | –

From ChEMBL document CHEMBL4616693, “Identification of Inhibitors of Thrombospondin 1 Activation of TGF-β” (ACS Med Chem Lett, 2020)
